Laboratory results taken from PubChem BioAssay AID330 (DTP/NCI, 2004).
Where “and” joins values, the source holds several entries; their conditions need not be identical. Equal entries are not always repeated. Toxic doses and inconclusive results are not listed. Rule for the calls: active = survival T/C of 150% or more; inactive = T/C below 125% in these data.

Test system: P388 leukemia ip, CD2F1 mice, survival T/C
Assay: NCI In Vivo Anticancer Drug Screen. Data for tumor model P388 Leukemia (intraperitoneal) in CD2F1 (CDF1) mice
Conditions: endpoint: median survival time, higher = longer survival
Method in brief: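 Mice carrying the transplanted tumor received test compound or vehicle. Survival was recorded in each group, and the value is the treated-group measurement divided by that of the vehicle-treated control group.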

[1] = dose: 6.25 mg/kg/injection, schedule: Q04DX003 (ip), vehicle: saline
[2] = dose: 60.0 mg/kg/injection, schedule: Q01DX005 (ip), vehicle: Klucel (hydroxypropylcellulose) (HPC)
[3] = dose: 50.0 mg/kg/injection, schedule: Q01DX005 (ip), vehicle: saline with Tween-80
[4] = dose: 100.0 mg/kg/injection, schedule: Q01DX005 (ip), vehicle: saline with Tween-80
[5] = dose: 200.0 mg/kg/injection, schedule: Q01DX005 (ip), vehicle: saline with Tween-80
[6] = dose: 25.0 mg/kg/injection, schedule: Q01DX009 (ip), vehicle: saline with Tween-80
[7] = dose: 50.0 mg/kg/injection, schedule: Q01DX009 (ip), vehicle: saline with Tween-80
[8] = dose: 100.0 mg/kg/injection, schedule: Q01DX009 (ip), vehicle: saline with Tween-80
[9] = dose: 200.0 mg/kg/injection, schedule: Q01DX009 (ip), vehicle: saline with Tween-80
[10] = dose: 12.5 mg/kg/injection, schedule: Q01DX009 (ip), vehicle: Klucel (hydroxypropylcellulose) (HPC)
[11] = dose: 100.0 mg/kg/injection, schedule: Q01DX009 (ip), vehicle: Klucel (hydroxypropylcellulose) (HPC)

Measured: T/C

Cc1ccc(S(=O)(=O)OC2C(O)CC(=O)C(OC(=O)c3ccccc3)C2OC(=O)c2ccccc2)cc1 (stereo not drawn)
inactive: dose: 50.0 mg/kg/injection, schedule: Q01DX001 (ip), vehicle: saline with Tween-80 90 % of control | dose: 100.0 mg/kg/injection, schedule: Q01DX001 (ip), vehicle: saline with Tween-80 89 % of control | dose: 400.0 mg/kg/injection, schedule: Q01DX001 (ip), vehicle: saline with Tween-80 100 % of control

CC(C)([CH2][Sn]([CH3])([Cl])[Cl])c1ccccc1
inactive: dose: 0.79 mg/kg/injection, schedule: Q04DX003 (ip), vehicle: saline with Tween-80 99 % of control and 101 % of control | dose: 1.56 mg/kg/injection, schedule: Q04DX003 (ip), vehicle: saline with Tween-80 99 % of control and 116 % of control and 98 % of control | dose: 3.12 mg/kg/injection, schedule: Q04DX003 (ip), vehicle: saline with Tween-80 102 % of control and 111 % of control and 95 % of control | dose: 6.25 mg/kg/injection, schedule: Q04DX003 (ip), vehicle: saline with Tween-80 104 % of control and 97 % of control and 98 % of control | [1] 106 % of control

Cc1cc(N)nc2cc(N)ccc12
inactive: dose: 15.0 mg/kg/injection, schedule: Q01DX005 (ip), vehicle: Klucel (hydroxypropylcellulose) (HPC) 89 % of control | dose: 30.0 mg/kg/injection, schedule: Q01DX005 (ip), vehicle: Klucel (hydroxypropylcellulose) (HPC) 99 % of control | [2] 98 % of control

CCOC(=O)C1(C(O)(C2CC2)C2(C(=O)OCC)CC2)CC1
inactive: [3] 100 % of control | [4] 102 % of control | [5] 100 % of control

O=C(O)/C=C\C(=O)OCc1ccc(Cl)cc1Cl
inactive: [6] 86 % of control | [7] 90 % of control

COC(=O)CCCC/C=C\CCCCCCC1C=CCC1 (stereo not drawn)
inactive: dose: 100.0 mg/kg/injection, schedule: Q01DX001 (ip), vehicle: saline 100 % of control | dose: 200.0 mg/kg/injection, schedule: Q01DX001 (ip), vehicle: saline 101 % of control | dose: 400.0 mg/kg/injection, schedule: Q01DX001 (ip), vehicle: saline 101 % of control

C/C=C/N=NNc1ccccc1OC
inactive: dose: 100.0 mg/kg/injection, schedule: Q04DX003 (ip), vehicle: saline + Tween-80 + alcohol 107 % of control

OCCCC(=S)NCCNC(=S)CCCO
inactive: [2] 101 % of control | dose: 120.0 mg/kg/injection, schedule: Q01DX005 (ip), vehicle: Klucel (hydroxypropylcellulose) (HPC) 92 % of control | dose: 240.0 mg/kg/injection, schedule: Q01DX005 (ip), vehicle: Klucel (hydroxypropylcellulose) (HPC) 101 % of control

COc1ccc(C(OC)c2cc(C(C)(C)C)c(O)c(C(C)(C)C)c2)cc1 (stereo not drawn)
inactive: [3] 102 % of control | [4] 109 % of control | [5] 112 % of control

CCCCOc1ccc(NC(=O)Nc2nnc(C)s2)cc1
inactive: [7] 99 % of control | [8] 89 % of control | [9] 86 % of control

COC(=O)c1[nH]c(=O)c(C#N)c(C(=O)OC)c1-c1ccc(F)cc1
inactive: dose: 60.0 mg/kg/injection, schedule: Q01DX005 (ip), vehicle: saline with Tween-80 100 % of control | dose: 120.0 mg/kg/injection, schedule: Q01DX005 (ip), vehicle: saline with Tween-80 92 % of control | dose: 240.0 mg/kg/injection, schedule: Q01DX005 (ip), vehicle: saline with Tween-80 95 % of control

CC(=O)Nc1ncc(Sc2ccc([N+](=O)[O-])cc2)s1
inactive: dose: 1.56 mg/kg/injection, schedule: Q04DX003 (ip), vehicle: saline 100 % of control | dose: 3.13 mg/kg/injection, schedule: Q04DX003 (ip), vehicle: saline 99 % of control | [1] 98 % of control | dose: 12.5 mg/kg/injection, schedule: Q04DX003 (ip), vehicle: saline 97 % of control

Cc1cc(N(CCOS(C)(=O)=O)CCOS(C)(=O)=O)ccc1C=Nc1ccc(-c2nc(Cc3ccccc3)sc2C)cc1
inactive: [10] 101 % of control | dose: 12.5 mg/kg/injection, schedule: Q01DX009 (oral), vehicle: Klucel (hydroxypropylcellulose) (HPC) 106 % of control and 107 % of control | dose: 25.0 mg/kg/injection, schedule: Q01DX009 (oral), vehicle: Klucel (hydroxypropylcellulose) (HPC) 100 % of control and 107 % of control | dose: 50.0 mg/kg/injection, schedule: Q01DX009 (oral), vehicle: Klucel (hydroxypropylcellulose) (HPC) 106 % of control and 117 % of control | dose: 100.0 mg/kg/injection, schedule: Q01DX009 (oral), vehicle: Klucel (hydroxypropylcellulose) (HPC) 108 % of control | dose: 200.0 mg/kg/injection, schedule: Q01DX009 (oral), vehicle: Klucel (hydroxypropylcellulose) (HPC) 119 % of control and 124 % of control | dose: 400.0 mg/kg/injection, schedule: Q01DX009 (oral), vehicle: Klucel (hydroxypropylcellulose) (HPC) 106 % of control

O=c1cncc[nH]1
inactive: dose: 12.5 mg/kg/injection, schedule: Q01DX009 (ip), vehicle: saline 105 % of control | dose: 25.0 mg/kg/injection, schedule: Q01DX009 (ip), vehicle: saline 108 % of control | dose: 50.0 mg/kg/injection, schedule: Q01DX009 (ip), vehicle: saline 108 % of control | dose: 100.0 mg/kg/injection, schedule: Q01DX009 (ip), vehicle: saline 109 % of control | dose: 200.0 mg/kg/injection, schedule: Q01DX009 (ip), vehicle: saline 96 % of control

CCOC(=O)N1CCc2nc3ccc(Cl)cc3cc21
inactive: [6] 117 % of control | [7] 98 % of control | [8] 99 % of control | [9] 108 % of control

CCC(C)C(NC(=O)C(C)Oc1cc(Cl)c(Cl)cc1Cl)C(=O)O (stereo not drawn)
inactive: [3] 92 % of control | [4] 101 % of control

C/C=C(/C)C(=O)OC/C(=C/C)C(=O)OC1C=CC(C)(C)C(C=O)=C1C (stereo not drawn)
inactive: [10] 93 % of control | dose: 25.0 mg/kg/injection, schedule: Q01DX009 (ip), vehicle: Klucel (hydroxypropylcellulose) (HPC) 93 % of control | [11] 93 % of control

CCN(CC)CCOc1ccc(C2N3Cc4ccccc4CN2c2ccccc23)cc1
inactive: dose: 100.0 mg/kg/injection, schedule: Q01DX001 (ip), vehicle: Klucel (hydroxypropylcellulose) (HPC) 99 % of control | dose: 200.0 mg/kg/injection, schedule: Q01DX001 (ip), vehicle: Klucel (hydroxypropylcellulose) (HPC) 108 % of control | dose: 400.0 mg/kg/injection, schedule: Q01DX001 (ip), vehicle: Klucel (hydroxypropylcellulose) (HPC) 99 % of control

COc1cc([C@@H]2c3cc4c(cc3C[C@H]3COC(=O)[C@@H]32)OCO4)cc2c1OCO2
inactive: dose: 1.8 mg/kg/injection, schedule: Q01DX009 (ip), vehicle: distilled water + Tween-80 113 % of control | dose: 3.0 mg/kg/injection, schedule: Q01DX009 (ip), vehicle: Klucel (hydroxypropylcellulose) (HPC) 109 % of control | dose: 3.75 mg/kg/injection, schedule: Q01DX009 (ip), vehicle: distilled water + Tween-80 95 % of control | dose: 6.0 mg/kg/injection, schedule: Q01DX009 (ip), vehicle: Klucel (hydroxypropylcellulose) (HPC) 118 % of control | dose: 12.0 mg/kg/injection, schedule: Q01DX009 (ip), vehicle: Klucel (hydroxypropylcellulose) (HPC) 122 % of control

COc1cc(/C=C/C(=O)c2c(N)n(C)c(=O)n(C)c2=O)cc(OC)c1OC
inactive: dose: 50.0 mg/kg/injection, schedule: Q01DX009 (ip), vehicle: Klucel (hydroxypropylcellulose) (HPC) 113 % of control | [11] 115 % of control | dose: 200.0 mg/kg/injection, schedule: Q01DX009 (ip), vehicle: Klucel (hydroxypropylcellulose) (HPC) 113 % of control
